Assay results as given in patent US8765726B2, “Use of pyridone derivatives in the prevention or treatment of tissue or organ toxicity induced by cytotoxic agents and radiation” (Shanghai Genomics, Inc., priority 2006, dated 2014).

Experiments:
[1] = system: Bleomycin-induced lung fibrosis; assay: Bleomycin-induced lung fibrosis in mice (pathology, lung index); type: in vivo, C57B6 mice; conditions: Bleomycin 5 mg/kg intratracheal day 1, F351 100 mg/kg/day or dexamethasone 3 mg/kg per day gavage for 28 days
Protocol: Forty eight (48) C57B6 mice (with body weight 16-18 g), half male and half female, were used in the study. Animals were divided into four groups with 12 animals per group. All the animals (except for those in control group) were injected with 5 mg/kg Bleomycin in the volume of 50 ul by intratracheal instillation on day 1 of the study. Animals in control group were injected by PBS instead. […] Pathology examination was performed at day 28.

[2] = system: radiation-induced lung injuries; assay: Example 1 repeated with F351 on radiation-induced lung injuries; type: in vivo; conditions: Prophylactic and therapeutic administration, irradiated mice, twenty per group; 'should show'
Description: The experiments in Example 1 are repeated, except that 5-methylpyridin-1(4-hydroxyphenyl)-2-(1H)-one (F351) rather than Pirfenidone is used, with twenty mice in each group.

[3] = system: Adriamycin-induced renal toxicity; assay: Adriamycin-induced renal toxicity in rats (urine proteins, renal pathology); type: in vivo, Wistar rats; conditions: Adriamycin 7.5 mg/kg tail vein day 1, F351 250 mg/kg per day gavage for 12 weeks
Protocol: (§1) 20 male Wistar rats (with body weight 180-220 g) were randomly divided into three groups with 4 rats in control group, 8 rats in Adriamycin-treated group, and 8 rats in Adriamycin+F351-treated group. All the animals (except for those in control group) were injected with 7.5 mg/kg adriamycin by tail vein injection on day 1 of the study. Animals in Adriamycin+F351-treated group were administrated by gauvage with 250 mg/kg F351 per day for 12 weeks starting on day 1 of the study. Animals in the control group were injected with PBS, instead. The study lasted for 12 weeks.
Rat urine was collected 24 hours before the end of the study and amount of urine proteins was determined. Renal tissues were also collected for pathology examination.
as §1, with “injection at” for “injection on”, “study. Animals in control group were injected with PBS instead.” for “study.”, “day 1.” for “day 1 of the study. Animals in the control group were injected with PBS, instead. The study lasted for 12 weeks.”

[4] = system: Cyclosporine A-induced nephrotoxicity; assay: Cyclosporine A-induced nephrotoxicity in rats (mean arterial pressure, kidney fibrosis score); type: in vivo, Wistar rats; conditions: CsA 15 mg/kg subcutaneous + F351 100 mg/Kg/day, once a day for 28 days, low salt diet
Protocol: 24 male Wistar rats (with body weight 180-220 g) were given low salt diet for 7 days before the study and randomly divided into three groups with 8 rats per group. The groups were named as control group, cyclosporine A (CsA)-treated group, and CsA+[…]-treated group. [table] The animals were treated once a day for 28 days as indicated in the above table. Once every 7 days, the animals were weighed and the dose of CsA and […] were adjusted in terms of body weight. Low salt diet was given to the animals during the whole study period. Mean arterial pressure was determined in alert state of the animals at the end of the study. Renal tissues were also collected for pathology examination.

[5] = Blood level of Pirfenidone capsule in healthy subjects on repeated dosing; type: in vivo, human; conditions: Twelve healthy subjects, capsule 400 mg once a day or three times a day for 5 days
Protocol: Twelve healthy subjects were administered with Pirfenidone capsule at the dose of 400 mg, once a day or three times a day. The medication continued for 5 days. The blood level of the medicine was measured every day.

[6] = system: radiation-induced lung injuries; assay: Radiation-induced lung injuries in mice (bronchial alveolar lavage cell count, whole-lung hydroxyproline); type: in vivo, BALB/C mice; design: unit not given here; conditions: 1200 cGy chest
Description: Irradiation source: Varian 600C linear accelerator, 6MV X ray
Irradiation method: The mice, six per row, were each detained in an organic-glass cage. The cage was lid with a 1.5 cm thick organic glass plate to compensate the buildup effect. The source-to-skin distance was 100 cm, the irradiation field was 2.5×18 cm. The animal's head and abdomen were sheltered by the lead baffle of the collimator, and thus only the chest was exposed to the irradiation. The single dose of irradiation is 1200 cGy. A sealed transfer box equipped with an air filtering device should be used to transfer the animals from or back to the animal house.
Animals: 10-week old BALB/C mice
Control Model group (60 mice): The mice were irradiated but not treated with the compound.
(§2) Prophylaxis group (60 mice): The medication at a predetermined dose was started 2 days before the irradiation. The irradiation method and the dosage were the same as in the control group. Pirfenidone was administered by gauvage (200 mg/kg, dissolved in 0.5% CMC-Na and administrated at the volume of 0.1 ml/10 g) once a day for 3 months.
as §2, with “Treatment” for “Prophylaxis”, “medication” for “medication at a predetermined dose”, “at day 0 of” for “2 days before”, “and” for “and the”
Blank control group (60 mice): The mice were not irradiated, and were only administered by gauvage with 0.5% CMC-Na once a day for 3 months.
The mice of each group were observed once a day after irradiation to examine the mortality. The cytometry and cell sorting of the lavage, collagen content measurement (hydroxyproline), pathomorphological observation were conducted periodically after medicament treatment.
Cytometry of the bronchial alveolar lavage liquid: the right lung was perfused with normal saline. 1.5-2.0 ml lavage liquid was collected into an Ependoff tube by gentle suction. The content of the inflammatory cells was counted manually by use of a haemocytometer immediately after collection of the bronchial alveolar lavage liquid.
Measurement of the hydroxyproline content: The measurement was performed with isolated lung tissue by following the instruction in the hydroxyproline kit.
Histopathologic examination: The isolated lung tissue was fixed in formaldehyde solution, pafarrin-imbeded after dehydration, and then subjected to HE staining and Masson trichrome staining. Evaluation criteria: Radiation-induced lung injuries was evaluated according to the standard semi-quantitative scoring of the Ashcroft interstitial pulmonary fibrosis.

[7] = system: radiation-induced lung injuries; assay: Tolerance to the therapeutic irradiation dosage, prophylactic Pirfenidone in irradiated mice; type: in vivo; conditions: Prophylactic administration, 200 mg/kg gavage once a day started 2 days before irradiation
Protocol: (a) Method: the Same as Described in Example 1. Prophylaxis group (60 mice): The medication was started 2 days before the irradiation. The mice were divided into two groups. The animals were administered by gauvage with Pirfenidone (200 mg/kg, dissolved in 0.5% CMC-Na and administrated at the volume of 0.1 ml/10 g) once a day for 3 months. Each group consisted of 60 mice. The mice of each group were observed once a day after irradiation to examine the dyspnea and mortality. The lung weighing, cytometry and cell sorting of the bronchial alveolar lavage liquid, collagen content measurement (hydroxyproline), measurement of cytokines (ACE, TGF-β, TGF-α etc) in the plasma, and pathomorphological observation were conducted periodically after the medicament treatment.

[8] = system: radiation-induced lung fibrosis; assay: Prevention and/or treatment of radiation-induced lung fibrosis in mice (macrophages, fibrosis evaluation, hydroproline); type: in vivo, BalB/C male mice; conditions: for Cytometry of macrophages / Evaluation on lung fibrosis / Hydroproline level: P + R group: 200 mg/kg/day from two days before 1200 cGy chest radiation for 12 weeks
Protocol: BalB/C male mice were randomly divided into three groups, namely, Control group (C group), Radiation group (R group), and Pirfenidone+Radiation (P+R group). All the animals were given single dose radiation on chest at 1200 cGy. Drugs were administrated two days before radiation for 12 weeks at 200 mg/kg/day. Examination includes cytometry of macrophages (performed 4 weeks and 8 weeks after drug administration), determination of hydroproline level (performed 16 weeks and 24 weeks after drug administration), and pathology examination of lung tissues by HE staining and Masson staining and evaluation of lung fibrosis by Ashcroft semi-quantitative evaluation standard under a microscope (performed 16 weeks and 24 weeks after drug administration).

[9] = system: bleomycin-induced lung fibrosis; assay: Bleomycin-induced lung fibrosis in rat: side effects of dexamethasone compared with pirfenidone
Description: Dexamethasone treatment was used as positive control in one study was designed to investigate the effects of pirfenidone on bleomycin-induced lung fibrosis in rat.

[10] = Prophylaxis group: 200 mg/kg gavage once a day started 2 days before irradiation, Month 2
[11] = Prophylaxis group: 200 mg/kg gavage once a day started 2 days before irradiation, Month 3
[12] = Prophylaxis group: 200 mg/kg gavage once a day started 2 days before irradiation, Month 4
[13] = Prophylaxis group: 200 mg/kg gavage once a day started 2 days before irradiation, Month 5
[14] = Prophylaxis group: 200 mg/kg gavage once a day started 2 days before irradiation, Month 6
[15] = Treatment group: 200 mg/kg gavage once a day from day 0 of irradiation, Month 2
[16] = Treatment group: 200 mg/kg gavage once a day from day 0 of irradiation, Month 3
[17] = Treatment group: 200 mg/kg gavage once a day from day 0 of irradiation, Month 4
[18] = Treatment group: 200 mg/kg gavage once a day from day 0 of irradiation, Month 5
[19] = Treatment group: 200 mg/kg gavage once a day from day 0 of irradiation, Month 6
[20] = Bleomycin-treated rats plus test drug

Cc1ccc(=O)n(-c2ccc(O)cc2)c1 [F351, 5-methyl-1-(4-hydroxylphenyl)-2-(1H)-pyridone]
Lung Index (±S) [1]: 1511.71 ± 945.55 | Pathological changes of the lung (pathology examination, HE and Masson staining) ([1]; day 28): significant improvement | Amount of inflammatory cells in the bronchial alveolar lavage liquid [2]: reduce the amount of inflammatory cells | Degree of kidney fibrosis by pathology examination [3]: reduced the degree of kidney fibrosis | Amount of Urine Proteins ([3]; x ± s): 54.32 ± 10.88 mg/24 hrs | Score on Kidney Fibrosis [4]: 0.62 ± 0.15 | Mean Arterial Pressure ([4]; x ± s): 16.02 ± 0.27 kPa

Cc1ccc(=O)n(-c2ccccc2)c1 [Pirfenidone]
Day on which blood stasis was achieved (blood level of the medicine) [5]: 3 days | Measurement of hydroxyproline in the whole lung ([6]; Prophylaxis group: 200 mg/kg gavage once a day started 2 days before irradiation, Month 1): 43.85 | Cell count of bronchial alveolar lavage liquid [6, 10]: 2.27 | Measurement of hydroxyproline in the whole lung [6, 10]: 43.81 | Cell count of bronchial alveolar lavage liquid [6, 11]: 2.03 | Measurement of hydroxyproline in the whole lung [6, 11]: 50.46 | Cell count of bronchial alveolar lavage liquid [6, 12]: 4.5 | Measurement of hydroxyproline in the whole lung [6, 12]: 56.98 | Cell count of bronchial alveolar lavage liquid [6, 13]: 27.7 | Measurement of hydroxyproline in the whole lung [6, 13]: 58.1 | Cell count of bronchial alveolar lavage liquid [6, 14]: 15 | Measurement of hydroxyproline in the whole lung [6, 14]: 58.15 | Measurement of hydroxyproline in the whole lung ([6]; Treatment group: 200 mg/kg gavage once a day from day 0 of irradiation, Month 1): 36.11 | Cell count of bronchial alveolar lavage liquid [6, 15]: 5.78 | Measurement of hydroxyproline in the whole lung [6, 15]: 46.36 | Cell count of bronchial alveolar lavage liquid [6, 16]: 1.04 | Measurement of hydroxyproline in the whole lung [6, 16]: 52.13 | Cell count of bronchial alveolar lavage liquid [6, 17]: 8.04 | Measurement of hydroxyproline in the whole lung [6, 17]: 60.38 | Cell count of bronchial alveolar lavage liquid [6, 18]: 45.55 | Measurement of hydroxyproline in the whole lung [6, 18]: 67.92 | Cell count of bronchial alveolar lavage liquid [6, 19]: 39.29 | Measurement of hydroxyproline in the whole lung [6, 19]: 68.24 | Cell count in the bronchial alveolar lavage liquid versus control group [7]: lower than that of the control group | Toxic effect on BalB/C mice ([8]; 200 mg/kg/day for 12 weeks): little toxic effect | Cytometry of macrophages ([8]; 4 weeks): 6.67 ± 2.04 1 × 10^4/ml | Cytometry of macrophages ([8]; 8 weeks): 2.27 ± 1.41 1 × 10^4/ml | Evaluation on lung fibrosis ([8]; 16 weeks): 29.15 ± 18.74 | Hydroproline level ([8]; 16 weeks): 67.65 ± 11.99 µg/mg | Evaluation on lung fibrosis ([8]; 24 weeks): 19.46 ± 6.67 | Hydroproline level ([8]; 24 weeks): 79.15 ± 10.90 µg/mg

C[C@@H]1C[C@H]2[C@@H]3CCC4=CC(=O)C=C[C@]4(C)[C@@]3(F)[C@@H](O)C[C@]2(C)[C@@]1(O)C(=O)CO [dexamethasone]
Lung Index (±S) [1]: 1083.90 ± 289.66 | Mortality rate [9, 20]: 64.3% | Number of dead animal [9, 20]: 9/14 | Body weight ([9]; rat, in vivo): Loss of body weight
